In patent publication US7745479B2, “1,5-substituted indol-2-yl amide derivatives” (Hoffmann-La Roche Inc., priority 2005, dated 2010) one finds Ki data, which are given here for one molecule.

The assay has as its target T1, histamine 3 receptor (H3R) (Homo sapiens, UniProt Q9Y5N1).
T1 construct: expressed in transfected cells; host or cells: CHO cells (HR3-CHO cell line), membrane preparation
The assay can be described thus: Competition binding assay with 3H-(R)α-methylhistamine on membranes of the human HR3-CHO cell line. The note with it: competition with 3H(R)α-Methylhistamine (1 nM), Ki calculated from IC50 by Cheng-Prusoff equation. How it is done:
Binding Assay with ^3H-(R)α-methylhistamine
Saturation binding experiments were performed using HR3-CHO membranes prepared as described in Takahashi, K, Tokita, S., Kotani, H. (2003) J. Pharmacol. Exp. Therapeutics 307, 213-218.
An appropriate amount of membrane (60 to 80 μg protein/well) was incubated with increasing concentrations of ^3H(R)α-Methylhistamine di-hydrochloride (0.10 to 10 nM). Non specific binding was determined using a 200 fold excess of cold (R)α-Methylhistamine dihydrobromide (500 nM final concentration). The incubation was carried out at room temperature (in deep-well plates shaking for three hours). The final volume in each well was 250 μl. […] After harvesting, the plates were dried at 55° C. for 60 min, then scintillation fluid (Microscint 40, 40 microl in each well) was added and the amount of radioactivity on the filter was determined with a Packard top-counter after shaking the plates for two hours at 200 rpm at room temperature. • Binding Buffer: 50 mM Tris-HCl pH 7.4 and 5 mM MgCl2x6H2O pH 7.4. […]
An appropriate amount of protein, e.g. approximately 500 cpm binding of RAMH at Kd, were incubated for 1 hour at room temperature in 250 μl final volume in 96-well plates in presence of ^3H(R)α-Methylhistamine (1 nM final concentration=Kd). Non-specific binding was determined using a 200 fold excess of cold (R)α-Methylhistamine dihydrobromide. […]

T1 sequence (Q9Y5N1 whole entry): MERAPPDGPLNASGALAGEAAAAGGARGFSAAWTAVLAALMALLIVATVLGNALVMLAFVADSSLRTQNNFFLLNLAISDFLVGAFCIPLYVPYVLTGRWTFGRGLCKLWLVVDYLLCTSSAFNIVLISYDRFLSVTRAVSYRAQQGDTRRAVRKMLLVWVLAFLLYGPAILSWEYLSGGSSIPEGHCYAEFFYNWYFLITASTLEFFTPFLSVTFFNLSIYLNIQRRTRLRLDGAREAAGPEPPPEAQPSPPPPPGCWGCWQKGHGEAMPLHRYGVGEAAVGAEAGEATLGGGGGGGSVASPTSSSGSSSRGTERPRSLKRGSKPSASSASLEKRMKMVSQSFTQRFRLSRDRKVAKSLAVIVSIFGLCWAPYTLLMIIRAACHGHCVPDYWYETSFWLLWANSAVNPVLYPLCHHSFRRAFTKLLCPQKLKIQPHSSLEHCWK

The term Ki denotes the dissociation constant of the complex between target and ligand, obtained from inhibition or displacement. For the molecule `CC(C)N1CCC(Oc2ccc3c(c2)cc(C(=O)N2CCC(F)(F)CC2)n3-c2ccnc(Cl)c2)CC1` [Example 9, [1-(2-Chloro-pyridin-4-yl)-5-(1-isopropyl-piperidin-4-yloxy)-1H-indol-2-yl]-(4,4-difluoro-piperidin-1-yl)-methanone], the Ki is 2 nM.
